Measurements as given in patent US6825192B1, “Heterodiazinone derivatives” (Eisai Co., Ltd., priority 1999, dated 2004).
Counter-ions that a name gives are not always drawn.

Test system: AMPA receptor
Assay: Inhibitory action on AMPA-inducing inflow of calcium into nerve cells (Fura2-AM)
Type: cell-based
Settings: rat cerebral cortex nerve cells on astrocytes, 1 μM MK-801, stimulated by 2 μM AMPA, fluorescence 340/380 nm
Protocol: The cerebral cortex was excised from the brain of a rat on day 18 after birth and treated with trypsin and DNase, whereby the cells were dispersed. The cells were allowed to float on DMEM containing 10% serum, inoculated into a culture bottle, and their astrocytes were grown. The astrocytes were re-dispersed with trypsin and inoculated onto each well on a 96-well plate. After it was confirmed that the bottom of each well was completely covered with the astrocytes after culture for 1 week, cerebral cortex nerve cells dispersed in the same manner as above were inoculated thereon. After 24 hours, the medium was exchanged with fresh one, and after culture for further 1 week, the medium was exchanged with a medium containing 1 μM MK-801.
The inflow of calcium into the cells was measured using Fura2-AM that is a calcium-sensitive fluorescent pigment. By treating the cells with a Fura2-AM-containing medium for 1 hour, Fura2-AM was incorporated into the cells, and the medium was exchanged with a Tyrode solution containing 1 μM MK-801. After a test compound was added, the cells were stimulated by 2 μM AMPA. The change in the amount of calcium flowing into the cells was measured as a change in the fluorescence intensity at wavelengths of 340/380 nm. The effect of a test compound was evaluated where the reaction caused by AMPA added to the Tyrode solution free of the test compound was used as the control.

IC50 [µM] | Structure (SMILES)
1.56 | O=C1COC(c2ncccc2O)=NN1c1ccccc1 [Example 14, 2-(3-Hydroxy-2-pyridyl)-4-phenyl-4H-1,3,4-oxadiazine-5(6H)-one]
2.28 | N#Cc1ccccc1N1N=C(c2ccccc2)OCC1=O [Example 36, 2-Phenyl-4-(2-cyanoeyphenyl)-4H-1,3,4-oxadiazine-5(6H)-one]
8.29 | O=C1COC(c2ccccc2OCCN2CCCCC2)=NN1c1ccccc1 [Example 59, 2-{2-[2-(1-Piperidyl)ethoxy]phenyl}-4-phenyl-4H-1,3,4-oxadiazine-5(6H)-one]
7.26 | O=C1COC(c2ccccc2OCCN2CCCC2)=NN1c1ccccc1 [Example 60, 2-{2-[2-(1-Pyrrolidinyl)ethoxy]phenyl}-4-phenyl-4H-1,3,4-oxadiazine-5(6H)-one]
4.61 | CN(C)CCOc1ccccc1C1=NN(c2ccccc2)C(=O)CO1 [Example 61, 2-[2-(2-Dimethylaminoethoxy)phenyl]-4-phenyl-4H-1,3,4-oxadiazine-5(6H)-one hydrochloride]
25.1 | CN(C)CCCOc1ccccc1C1=NN(c2ccccc2)C(=O)CO1 [Example 62, 2-[2-(3-Dimethylaminopropoxy)phenyl]-4-phenyl-4H-1,3,4-oxadiazine-5(6H)-one hydrochloride]
24.7 | O=C1COC(c2ccccc2OCCCN2CCCCC2)=NN1c1ccccc1 [Example 63, 2-{2-[3-(1-Piperidinyl)propoxy]phenyl}-4-phenyl-4H-1,3,4-oxadiazine-5(6H)-one hydrochloride]
3.54 | CN(C)CCOc1ccccc1C1=NN(c2ccccc2F)C(=O)CO1 [Example 66, 2-[2-(2-Dimethylaminoethoxy)phenyl]-4-(2-fluorophenyl)-4H-1,3,4-oxadiazine-5(6H)-one hydrochloride]
6.62 | O=C1COC(c2ccccc2OCCN2CCOCC2)=NN1c1ccccc1F [Example 67, 2-{2-[2-(4-Morpholinyl)ethoxy]phenyl}-4-(2-fluorophenyl)-4H-1,3,4-oxadiazine-5(6H)-one hydrochloride]
11.1 | Cl.O=C1COC(c2ccccc2OCCN2CCOCC2)=NN1c1ccccc1Br [Example 68, 2-{2-[2-(4-Morpholinyl)ethoxy]phenyl}-4-(2-bromophenyl)-4H-1,3,4-oxadiazine-5(6H)-one hydrochloride]
68.7 | O=C1COC(c2ccccc2OCCN2CCOCC2)=NN1C1CCCCC1 [Example 69, 2-{2-[2-(4-Morpholinyl)ethoxy]phenyl}-4-cyclohexyl-4H-1,3,4-oxadiazine-5(6H)-one hydrochloride]
27.2 | O=C1COC(c2ccccc2OCCN2CCOCC2)=NN1c1ccc(F)cc1 [Example 70, 2-{2-[2-(4-Morpholinyl)ethoxy]phenyl}-4-(4-fluorophenyl)-4H-1,3,4-oxadiazine-5(6H)-one hydrochloride]
21 | O=C1COC(c2ccccc2OCCN2CCOCC2)=NN1c1ccc(F)cc1F [Example 71, 2-{2-[2-(4-Morpholinyl)ethoxy]phenyl}-4-(2,4-difluorophenyl)-4H-1,3,4-oxadiazine-5(6H)-one hydrochloride]
31.8 | Nc1cccc(C2=NN(c3ccccc3)C(=O)CO2)c1 [Example 78, 2-(3-aminophenyl)-4-phenyl-4H-1,3,4-oxadiazine-5(6H)-one]
62 | O=C1COC(c2ccccc2)=NN1C1CCOCC1 [Example 80, 2-Phenyl-4-(tetrahydro-4H-pyran-4-yl)-4H-1,3,4-oxadiazine-5(6H)-one]
16.9 | O=C1COC(c2ccccc2)=NN1C1CCN(Cc2ccccc2)CC1 [Example 86, 2-Phenyl-4-(1-benzyl-4-piperidyl)-4H-1,3,4-oxadiazine-5(6H)-one hydrochloride]

IC50 [µM] | Structure (SMILES)
25.4 | CC(c1ccccn1)N1N=C(c2ccccc2)OCC1=O (stereo not drawn) [Example 87, 2-Phenyl-4-[1-(2-pyridyl)ethyl]-4H-1,3,4-oxadiazine-5(6H)-one hydrochloride]
52.3 | CC(c1cccnc1)N1N=C(c2ccccc2)OCC1=O (stereo not drawn) [Example 88, 2-Phenyl-4-[1-(3-pyridyl)ethyl]-4H-1,3,4-oxadiazine-5(6H)-one oxalate]
54 | CC(c1ccncc1)N1N=C(c2ccccc2)OCC1=O (stereo not drawn) [Example 89, 2-Phenyl-4-[1-(4-pyridyl)ethyl]-4H-1,3,4-oxadiazine-5(6H)-one oxalate]
31.4 | CN(C)c1cccc(C2=NN(c3ccccc3)C(=O)CO2)c1 [Example 90, 2-(3-Dimethylaminophenyl)-4-phenyl-4H-1,3,4-oxadiazine-5(6H)-one]
19.1 | CN(C)c1ccccc1C1=NN(c2ccccc2)C(=O)CO1 [Example 91, 2-(2-Dimethylaminophenyl)-4-phenyl-4H-1,3,4-oxadiazine-5(6H)-one]
98.7 | O=C1COC(c2ccncc2)=NN1c1ccccc1 [Example 94, 2-(4-Pyridyl)-4-phenyl-4H-1,3,4-oxadiazine-5(6H)-one hydrochloride]
0.8 | O=C1COC(c2ccccc2)=NN1c1ccccc1Cl [Example 100, 2-Phenyl-4-(2-chlorophenyl)-4H-1,3,4-oxadiazine-5(6)-one]
3.4 | O=C1COC(c2ccccc2)=NN1c1c(Cl)cccc1Cl [Example 101, 2-Phenyl-4-(2,6-dichlorophenyl)-4H-1,3,4-oxadiazine-5(6)-one]
8.2 | O=C1C(O)SC(c2ccccc2)=NN1c1ccccc1 (stereo not drawn) [Example 102, 2,4-Diphenyl-6-hydroxy-4-1,3,4-thiadiazine-5-one]
4.2 | CN(CCOc1ccccc1C1=NN(c2ccccc2Br)C(=O)CO1)Cc1ccccc1 [Example 103, 2-{2-[2-(N-Benzyl-N-methyl)amino]ethoxyphenyl}-4-(2-bromophenyl)-4H-1,3,4-oxadiazine-5(6H)-one]
2.7 | CNCCOc1ccccc1C1=NN(c2ccccc2Br)C(=O)CO1 [Example 104, 2-[2-(Methylamino)ethoxyphenyl]-4-(2-bromophenyl)-4H-1,3,4-oxadiazine-5(6H)-one]
1.9 | O=C1COC(c2ccccn2)=NN1c1ccccc1I [Example 105, 2-(2-Pyridyl)-4-(2-iodophenyl)-4H-1,3,4-oxadiazine-5(6H)-one]
7.3 | N#Cc1ccccc1N1N=C(c2ccccn2)OCC1=O [Example 106, 2-(2-Pyridyl)-4-(2-cyanophenyl)-4H-1,3,4-oxadiazine-5(6H)-one]
6.4 | CC1(C)OC(c2ccccc2)=NN(c2ccccc2)C1=O [Example 107, 2,4-Diphenyl-6,6-dimethyl-4H-1,3,4-oxadiazine-5-one]
13.2 | O=C1C(c2ccccc2)OC(c2ccccc2)=NN1c1ccccc1 (stereo not drawn) [Example 108, 2,4,6-triphenyl-4H-1,3,4-oxadiazine-5-one]

Structure (SMILES) | IC50 [µM]
O=C(Nc1ccccn1)C1=NN(c2ccccc2)C(=O)CO1 [Example 95, N-(2-Pyridyl)-[4-phenyl-4H-1,3,4-oxadiazine-5(6H)-one-2-yl]carboxamide hydrochloride] | 48.2

Test system: male ddy mice
Assay: Inhibitory action on AMPA-inducing spasm
Type: in vivo
Settings: intravenous, 5 minutes before 1.5 nmol AMPA into the ventricle
Protocol: A test compound or its solvent only was intravenously injected into 4-week-old male ddy mice, and 5 minutes later, 1.5 nmol AMPA was administered into the ventricle thereby inducing spasm. The action of the test chemical was judged by the presence or absence of spasm, and its dose causing 80% or more inhibition was regarded as an effective dose.

Structure (SMILES) | effective dose (dose causing 80% or more inhibition of spasm) [mg/kg]
O=C1COC(c2ncccc2O)=NN1c1ccccc1 [Example 14, 2-(3-Hydroxy-2-pyridyl)-4-phenyl-4H-1,3,4-oxadiazine-5(6H)-one] | 10
N#Cc1ccccc1N1N=C(c2ccccc2)OCC1=O [Example 36, 2-Phenyl-4-(2-cyanoeyphenyl)-4H-1,3,4-oxadiazine-5(6H)-one] | 10
Cl.O=C1COC(c2ccccc2OCCN2CCOCC2)=NN1c1ccccc1Br [Example 68, 2-{2-[2-(4-Morpholinyl)ethoxy]phenyl}-4-(2-bromophenyl)-4H-1,3,4-oxadiazine-5(6H)-one hydrochloride] | 30

Test system: not given
Assay: not given
Settings: not given

Structure (SMILES) | melting point [°C]
O=C1COC(c2ccccn2)=NN1c1ccccc1 (as salt: hydrochloride) [Example 1, 2-(2-Pyridyl)-4-phenyl-4H-1,3,4-oxadiazine-5(6H)-one hydrochloride] | 149 to 150
